Source: US7375058B2, “Herbicidal mixtures based on 3-phenyluracils” (priority 2002, dated 2008)

Legend:
AVEFA = test: Greenhouse post-emergence herbicidal action against AVEFA; format: in vivo, Avena fatua
Source text: (§1) For the post-emergence treatment, the test plants were first grown to a height of 3 to 20 cm, depending on the plant habit, and only then treated. Here, the herbicidal compositions were suspended or emulsified in water as distribution medium and sprayed using finely distributing nozzles
(§2) The respective components A and B and/or C were formulated as 10% by weight strength emulsion concentrate and introduced to the spray liquor with the amount of solvent system used for applying the active compound. In the examples, the solvent used was water.
(§3) The test period extended over 21 days. During this time, the plants were tended, and their response to the treatments with active compound was evaluated.
(§4) The evaluation for the damage caused by the chemical compositions was carried out using a scale from 0 to 100%, compared to the untreated control plants. Here, 0 means no damage and 100 means complete destruction of the plants.
(§5) In the examples below, the value E which is to be expected if the activity of the individual compounds is just additive was calculated using the method of S. R. Colby (1967) “Calculating synergistic and antagonistic responses of herbicide combinations”, Weeds 15, p. 22 ff. E=X+Y−([…]) where • X=effect in percent using active compound A at an application rate a; • Y=effect in percent using active compound B at an application rate b; • E=expected effect (in %) of A+B at application rates a+b.
(§6) If the observed effect is higher than the value E calculated according to Colby, a synergistic effect is present.

POLPE = test: Greenhouse post-emergence herbicidal action against POLPE; format: in vivo, Polygonum persicaria; conditions: 21 days
Source text: as §1, §2, §3, §4, §5, §6

AMARE = test: Greenhouse post-emergence herbicidal action against AMARE; format: in vivo, Amaranthus retroflexus
Source text: as §1, §2, §3, §4, §5, §6

BIDPI = test: Greenhouse post-emergence herbicidal action against BIDPI; format: in vivo, Bidens pilosa
Source text: as §1, §2, §3, §4, §5, §6

ABUTH = test: Greenhouse post-emergence herbicidal action against ABUTH; format: in vivo, Abutilon theophrasti; conditions: 21 days
Source text: as §1, §2, §3, §4, §5, §6

GALAP = test: Greenhouse post-emergence herbicidal action against GALAP; format: in vivo, Galium aparine; conditions: 21 days
Source text: as §1, §2, §3, §4, §5, §6

COMBE = test: Greenhouse post-emergence herbicidal action against COMBE; format: in vivo, Commelina benghalensis; conditions: 21 days
Source text: as §1, §2, §3, §4, §5, §6

BRAPL = test: Greenhouse post-emergence herbicidal action against BRAPL; format: in vivo, Brachiaria plantaginea; conditions: 21 days
Source text: as §1, §2, §3, §4, §5, §6

POAPR = test: Pre-emergence herbicidal action against POAPR; format: in vivo, Poa pratensis; conditions: 21 days
Protocol: as §4
(§7) In the examples below, the mixtures were applied by the pre-emergence method. To this end, the test plants were initially sown and covered with a thin layer of soil. Afterward (i.e. prior to the germination of the test plants), the mixtures according to the invention were sprayed onto the soil as an aqueous spray liquor at the stated application rate. As in the post-emergence method described above, the test period was 21 days. The damage was then evaluated as described above using a scale from 0 to 100% damage in comparison to untreated control plants (0% damage).
(§8) A safener action is present if the damage to the crop plant caused by using a mixture according to the invention which contains a safener C) is less than the damage caused when active compound A or active compounds A and B are used without safener.

ECHCG = test: Greenhouse post-emergence herbicidal action against ECHCG; format: in vivo, Echinochloa crus-galli; conditions: 21 days
Source text: as §1, §2, §3, §4, §5, §6

TRZAW = test: Pre-emergence safener action (crop damage) in TRZAW; format: in vivo, Triticum aestivum (Winter wheat); conditions: 21 days
Protocol: as §4, §7, §8

TRFPR = test: Pre-emergence herbicidal action against TRFPR; format: in vivo, Trifolium pratense; conditions: 21 days
Protocol: as §4, §7, §8

ALOMY = test: Greenhouse post-emergence herbicidal action against ALOMY; format: in vivo, Alopecurus myosuroides; conditions: 21 days
Source text: as §1, §2, §3, §4, §5, §6

[1] = I.1 1.95 g/ha and/or b10.1 125 g/ha
[2] = I.1 3.91 g/ha and/or b10.1 250 g/ha
[3] = I.1 0.49 g/ha and/or b14.1 7.81 g/ha
[4] = I.1 0.98 g/ha and/or b14.1 15.63 g/ha
[5] = application rate g/ha: I.7 1.95, b13.1 500
[6] = application rate g/ha: I.7 3.91, b13.1 1000
[7] = application rate g/ha: I.7 1.95, b3.2 62.5
[8] = application rate g/ha: I.7 3.91, b3.2 125
[9] = I.7 200 g/ha and/or c.1 200 g/ha
[10] = I.7 400 g/ha and/or c.1 400 g/ha
[11] = application rate g/ha: I.8 0.98, b5.1 7.81
[12] = application rate g/ha: I.8 1.95, b5.1 15.63
[13] = I.8 200 g/ha and/or c.1 200 g/ha
[14] = I.8 400 g/ha and/or c.1 400 g/ha

CN(C)S(=O)(=O)NC(=O)c1cc(-n2c(=O)cc(C(F)(F)F)n(C)c2=O)c(F)cc1Cl [I.1]
Herbicidal action against AVEFA found (AVEFA; 21 days, application rate g/ha: I.1 0.98, b9.1 125): 5% | Herbicidal action against AVEFA found (AVEFA; 21 days, application rate g/ha: I.1 1.95, b9.1 250): 10% | Herbicidal action against AVEFA found (AVEFA; [1]): 10% | Herbicidal action against AVEFA found (AVEFA; [2]): 10% | Herbicidal action against POLPE found (POLPE; application rate g/ha: I.1 0.49, b4.1 0.98): 10% | Herbicidal action against POLPE found (POLPE; application rate g/ha: I.1 0.98, b4.1 1.95): 25% | Herbicidal action against AMARE found (AMARE; [3]): 60% | Herbicidal action against AMARE found (AMARE; [4]): 60% | Herbicidal action against BIDPI found (BIDPI; [3]): 20% | Herbicidal action against BIDPI found (BIDPI; [4]): 30% | Herbicidal action against BIDPI found (BIDPI; [1]): 40% | Herbicidal action against BIDPI found (BIDPI; [2]): 50% | Herbicidal action against ABUTH found (ABUTH; application rate g/ha: I.1 1.95, b1.2 31.25): 20% | Herbicidal action against ABUTH found (ABUTH; application rate g/ha: I.1 3.91, b1.2 62.5): 30% | Herbicidal action against GALAP found (GALAP; application rate g/ha: I.1 1.95, b1.1 62.5): 20% | Herbicidal action against GALAP found (GALAP; application rate g/ha: I.1 1.95, b1.3 + c.1 62.5 + 67.5): 50% | Herbicidal action against GALAP found (GALAP; application rate g/ha: I.1 3.91, b1.1 125): 20% | Herbicidal action against GALAP found (GALAP; application rate g/ha: I.1 3.91, b1.3 + c.1 125 + 135.9): 60%

CC(C)N(C)S(=O)(=O)NC(=O)c1cc(-n2c(=O)cc(C(F)(F)F)n(C)c2=O)c(F)cc1Cl [I.7]
Herbicidal action against AVEFA found (AVEFA; 21 days, application rate g/ha: I.7 1.95, b3.1 62.5): 10% | Herbicidal action against AVEFA found (AVEFA; 21 days, application rate g/ha: I.7 1.95, b6.1 125): 10% | Herbicidal action against AVEFA found (AVEFA; 21 days, application rate g/ha: I.7 1.95, b7.1 250): 10% | Herbicidal action against AVEFA found (AVEFA; 21 days, application rate g/ha: I.7 3.91, b3.1 125): 15% | Herbicidal action against AVEFA found (AVEFA; 21 days, application rate g/ha: I.7 3.91, b6.1 250): 15% | Herbicidal action against AVEFA found (AVEFA; 21 days, application rate g/ha: I.7 3.91, b7.1 500): 15% | Herbicidal action against POLPE found (POLPE; application rate g/ha: I.7 1.95, b3.1 62.5): 0% | Herbicidal action against POLPE found (POLPE; application rate g/ha: I.7 1.95, b7.1 250): 0% | Herbicidal action against POLPE found (POLPE; [5]): 0% | Herbicidal action against POLPE found (POLPE; application rate g/ha: I.7 3.91, b3.1 125): 25% | Herbicidal action against POLPE found (POLPE; application rate g/ha: I.7 3.91, b7.1 500): 25% | Herbicidal action against POLPE found (POLPE; [6]): 25% | Herbicidal action against COMBE found (COMBE; [5]): 0% | Herbicidal action against COMBE found (COMBE; [6]): 0% | Herbicidal action against BRAPL found (BRAPL; [7]): 40% | Herbicidal action against BRAPL found (BRAPL; [8]): 60% | Herbicidal action against POAPR (POAPR; [9]): 98% | Herbicidal action against POAPR (POAPR; [10]): 98% | Herbicidal action against ECHCG found (ECHCG; [7]): 0% | Herbicidal action against ECHCG found (ECHCG; [8]): 30% | Damage to crop plant TRZAW (TRZAW; [9]): 10% | Damage to crop plant TRZAW (TRZAW; [10]): 35% | Herbicidal action against ABUTH found (ABUTH; application rate g/ha: I.7 0.98, b3.3 31.25): 0% | Herbicidal action against ABUTH found (ABUTH; application rate g/ha: I.7 0.98, b3.4 31.25): 0% | Herbicidal action against ABUTH found (ABUTH; application rate g/ha: I.7 1.95, b3.3 62.5): 30% | Herbicidal action against ABUTH found (ABUTH; application rate g/ha: I.7 1.95, b3.4 62.5): 30% | Herbicidal action against TRFPR (TRFPR; [9]): 100% | Herbicidal action against TRFPR (TRFPR; [10]): 100%

CC(C)N(C)S(=O)(=O)NC(=O)c1cc(-n2c(=O)cc(C(F)(F)F)n(N)c2=O)c(F)cc1Cl [I.8]
Herbicidal action against POLPE found (POLPE; [11]): 10% | Herbicidal action against POLPE found (POLPE; [12]): 20% | Herbicidal action against BRAPL found (BRAPL; [11]): 30% | Herbicidal action against BRAPL found (BRAPL; [12]): 40% | Herbicidal action against ALOMY found (ALOMY; application rate g/ha: I.8 0.49, b2.1 7.81): 5% | Herbicidal action against ALOMY found (ALOMY; application rate g/ha: I.8 0.98, b2.1 15.63): 10% | Herbicidal action against POAPR (POAPR; [13]): 98% | Herbicidal action against POAPR (POAPR; [14]): 100% | Herbicidal action against ECHCG found (ECHCG; application rate g/ha: I.8 1.95, b5.2 31.25): 20% | Herbicidal action against ECHCG found (ECHCG; application rate g/ha: I.8 3.91, b5.2 62.5): 40% | Damage to crop plant TRZAW (TRZAW; [13]): 30% | Damage to crop plant TRZAW (TRZAW; [14]): 65% | Herbicidal action against BIDPI found (BIDPI; 21 days, application rate g/ha: I.8 0.49, b2.2 7.81): 10% | Herbicidal action against BIDPI found (BIDPI; 21 days, application rate g/ha: I.8 0.98, b2.2 15.63): 20% | Herbicidal action against TRFPR (TRFPR; [13]): 100% | Herbicidal action against TRFPR (TRFPR; [14]): 100%
